Measurements taken from ChEMBL document CHEMBL3526057 (Drug Metab Dispos, 2011).

Experiments:
Assay type in all cases: ADME
Conditions in all cases: recombinant enzyme, 1 h
Cytochrome P450 2C19 [1] = target: T1, Cytochrome P450 2C19 (Homo sapiens, UniProt P33261); experiment: Activity of human recombinant CYP2C19.1A mutant expressed in Saccharomyces cerevisiae BJ5457 assessed as intrinisic clearance foromeprazole 5'-hydroxylation per pmol protein after 60 mins
Cytochrome P450 2C19 [2] = target: T2, Cytochrome P450 2C19 (Homo sapiens, UniProt P33261, F168L); experiment: Activity of human recombinant CYP2C19 F168L mutant expressed in Saccharomyces cerevisiae BJ5457 assessed as omeprazole 5'-hydroxylation per pmol protein at 100 uM after 60 mins
Cytochrome P450 2C19 [3] = target: T3, Cytochrome P450 2C19 (Homo sapiens, UniProt P33261, A161P); experiment: Activity of human recombinant CYP2C19 A161P mutant expressed in Saccharomyces cerevisiae BJ5457 assessed as omeprazole 5'-hydroxylation per pmol protein at 5 uM after 60 mins
Cytochrome P450 2C19 [4] = target: T4, Cytochrome P450 2C19 (Homo sapiens, UniProt P33261, R329H); experiment: Activity of human recombinant CYP2C19.18 mutant expressed in Saccharomyces cerevisiae BJ5457 assessed as omeprazole 5'-hydroxylation per pmol protein at 100 uM after 60 mins
Cytochrome P450 2C19 [5] = target: T4, Cytochrome P450 2C19; experiment: Activity of human recombinant CYP2C19.18 mutant expressed in Saccharomyces cerevisiae BJ5457 assessed as omeprazole 5'-hydroxylation per pmol protein at 5 uM after 60 mins
Cytochrome P450 2C19 [6] = target: Cytochrome P450 2C19 (Homo sapiens, UniProt P33261, R144H); experiment: Activity of human recombinant CYP2C19.9 mutant expressed in Saccharomyces cerevisiae BJ5457 assessed as omeprazole 5'-hydroxylation per pmol protein at 100 uM after 60 mins
Cytochrome P450 2C19 [7] = target: T2, Cytochrome P450 2C19; experiment: Activity of human recombinant CYP2C19 F168L mutant expressed in Saccharomyces cerevisiae BJ5457 assessed as omeprazole 5'-hydroxylation per pmol protein at 5 uM after 60 mins
Cytochrome P450 2C19 [8] = target: T1, Cytochrome P450 2C19; experiment: Activity of human recombinant CYP2C19.8 mutant expressed in Saccharomyces cerevisiae BJ5457 assessed as omeprazole 5'-hydroxylation per pmol protein at 5 uM after 60 mins
Cytochrome P450 2C19 [9] = target: T5, Cytochrome P450 2C19 (Homo sapiens, UniProt P33261, W212C); experiment: Activity of human recombinant CYP2C19 W212C mutant expressed in Saccharomyces cerevisiae BJ5457 assessed asomeprazole 5'-hydroxylation after 60 mins
Cytochrome P450 2C19 [10] = target: T3, Cytochrome P450 2C19; experiment: Activity of human recombinant CYP2C19 A161P mutant expressed in Saccharomyces cerevisiae BJ5457 assessed asomeprazole 5'-hydroxylation per pmol protein after 60 mins
Cytochrome P450 2C19 [11] = target: T5, Cytochrome P450 2C19; experiment: Activity of human recombinant CYP2C19 W212C mutant expressed in Saccharomyces cerevisiae BJ5457 assessed asomeprazole 5'-hydroxylation per pmol protein after 60 mins
Cytochrome P450 2C19 [12] = target: T4, Cytochrome P450 2C19; experiment: Activity of human recombinant CYP2C19.18 mutant expressed in Saccharomyces cerevisiae BJ5457 assessed asomeprazole 5'-hydroxylation after 60 mins
Cytochrome P450 2C19 [13] = target: T6, Cytochrome P450 2C19 (Homo sapiens, UniProt P33261, S51G); experiment: Activity of human recombinant CYP2C19.19 mutant expressed in Saccharomyces cerevisiae BJ5457 assessed asomeprazole 5'-hydroxylation per pmol protein after 60 mins
Cytochrome P450 2C19 [14] = target: T4, Cytochrome P450 2C19; experiment: Activity of human recombinant CYP2C19.18 mutant expressed in Saccharomyces cerevisiae BJ5457 assessed asomeprazole 5'-hydroxylation per pmol protein after 60 mins
Cytochrome P450 2C19 [15] = target: T5, Cytochrome P450 2C19; experiment: Activity of human recombinant CYP2C19 W212C mutant expressed in Saccharomyces cerevisiae BJ5457 assessed as intrinisic clearance foromeprazole 5'-hydroxylation per pmol protein after 60 mins
Cytochrome P450 2C19 [16] = target: Cytochrome P450 2C19 (Homo sapiens, UniProt P33261, L17P); experiment: Activity of human recombinant CYP2C19.14 mutant expressed in Saccharomyces cerevisiae BJ5457 assessed as intrinisic clearance foromeprazole 5'-hydroxylation per pmol protein after 60 mins
Cytochrome P450 2C19 [17] = target: Cytochrome P450 2C19 (Homo sapiens, UniProt P33261, M74T); experiment: Activity of human recombinant CYP2C19 M74T mutant expressed in Saccharomyces cerevisiae BJ5457 assessed as omeprazole 5'-hydroxylation per pmol protein at 5 uM after 60 mins
Cytochrome P450 2C19 [18] = target: Cytochrome P450 2C19 (Homo sapiens, UniProt P33261, E122A); experiment: Activity of human recombinant CYP2C19 E122A mutant expressed in Saccharomyces cerevisiae BJ5457 assessed as omeprazole 5'-hydroxylation per pmol protein at 5 uM after 60 mins
Cytochrome P450 2C19 [19] = target: T1, Cytochrome P450 2C19; experiment: Activity of human recombinant CYP2C19.1A mutant expressed in Saccharomyces cerevisiae BJ5457 assessed asomeprazole 5'-hydroxylation per pmol protein after 60 mins
Cytochrome P450 2C19 [20] = target: T7, Cytochrome P450 2C19 (Homo sapiens, UniProt P33261, E92D); experiment: Activity of human recombinant CYP2C19 E92D mutant expressed in Saccharomyces cerevisiae BJ5457 assessed as intrinisic clearance foromeprazole 5'-hydroxylation per pmol protein after 60 mins
Cytochrome P450 2C19 [21] = target: T8, Cytochrome P450 2C19 (Homo sapiens, UniProt P33261, D360N); experiment: Activity of human recombinant CYP2C19 D360N mutant expressed in Saccharomyces cerevisiae BJ5457 assessed as omeprazole 5'-hydroxylation per pmol protein at 100 uM after 60 mins
Cytochrome P450 2C19 [22] = target: T7, Cytochrome P450 2C19; experiment: Activity of human recombinant CYP2C19 E92D mutant expressed in Saccharomyces cerevisiae BJ5457 assessed asomeprazole 5'-hydroxylation per pmol protein after 60 mins
Cytochrome P450 2C19 [23] = target: T8, Cytochrome P450 2C19; experiment: Activity of human recombinant CYP2C19 D360N mutant expressed in Saccharomyces cerevisiae BJ5457 assessed as intrinisic clearance foromeprazole 5'-hydroxylation per pmol protein after 60 mins
Cytochrome P450 2C19 [24] = target: T3, Cytochrome P450 2C19; experiment: Activity of human recombinant CYP2C19 A161P mutant expressed in Saccharomyces cerevisiae BJ5457 assessed as intrinisic clearance foromeprazole 5'-hydroxylation per pmol protein after 60 mins
Cytochrome P450 2C19 [25] = target: T9, Cytochrome P450 2C19 (Homo sapiens, UniProt P33261, R410C); experiment: Activity of human recombinant CYP2C19.13 mutant expressed in Saccharomyces cerevisiae BJ5457 assessed as intrinisic clearance foromeprazole 5'-hydroxylation per pmol protein after 60 mins
Cytochrome P450 2C19 [26] = target: Cytochrome P450 2C19 (Homo sapiens, UniProt P33261, V331I/R442C); experiment: Activity of human recombinant CYP2C19.16 mutant expressed in Saccharomyces cerevisiae BJ5457 assessed as intrinisic clearance foromeprazole 5'-hydroxylation per pmol protein after 60 mins
Cytochrome P450 2C19 [27] = target: T2, Cytochrome P450 2C19; experiment: Activity of human recombinant CYP2C19 F168L mutant expressed in Saccharomyces cerevisiae BJ5457 assessed asomeprazole 5'-hydroxylation per pmol protein after 60 mins
Cytochrome P450 2C19 [28] = target: Cytochrome P450 2C19 (Homo sapiens, UniProt P33261, I19L); experiment: Activity of human recombinant CYP2C19.15 mutant expressed in Saccharomyces cerevisiae BJ5457 assessed as omeprazole 5'-hydroxylation per pmol protein at 5 uM after 60 mins
Cytochrome P450 2C19 [29] = target: T9, Cytochrome P450 2C19; experiment: Activity of human recombinant CYP2C19.13 mutant expressed in Saccharomyces cerevisiae BJ5457 assessed as omeprazole 5'-hydroxylation per pmol protein at 5 uM after 60 mins
Cytochrome P450 2C19 [30] = target: T6, Cytochrome P450 2C19; experiment: Activity of human recombinant CYP2C19.19 mutant expressed in Saccharomyces cerevisiae BJ5457 assessed as intrinisic clearance foromeprazole 5'-hydroxylation per pmol protein after 60 mins
Cytochrome P450 2C19 [31] = target: Cytochrome P450 2C19 (Homo sapiens, UniProt P33261, R150H); experiment: Activity of human recombinant CYP2C19.11 mutant expressed in Saccharomyces cerevisiae BJ5457 assessed as omeprazole 5'-hydroxylation per pmol protein at 5 uM after 60 mins

Compound COc1ccc2[nH]c([S+]([O-])Cc3ncc(C)c(OC)c3C)nc2c1 (stereo unspecified) [OMEPRAZOLE] has a CL (Cytochrome P450 2C19 [1]) of 1.49 µL/min, a Drug metabolism (Cytochrome P450 2C19 [2]) of 5.48 pmol/min and a Drug metabolism (Cytochrome P450 2C19 [3]) of 0.65 pmol/min. The Drug metabolism (Cytochrome P450 2C19 [4]) was 4.83 pmol/min, the Drug metabolism (Cytochrome P450 2C19 [5]) was 2.21 pmol/min and the Drug metabolism (Cytochrome P450 2C19 [6]) was 5.48 pmol/min. The Drug metabolism (Cytochrome P450 2C19 [7]) was 3.08 pmol/min, the Drug metabolism (Cytochrome P450 2C19 [8]) was “metabolite_not_detected” and the Km (Cytochrome P450 2C19 [9]) was 11.2 µM. The Vmax (Cytochrome P450 2C19 [10]) was 1.61 pmol/min, the Vmax (Cytochrome P450 2C19 [11]) was 2.04 pmol/min and the Km (Cytochrome P450 2C19 [12]) was 6.02 µM. It also gave a Vmax (Cytochrome P450 2C19 [13]) of 9.59 pmol/min, a Vmax (Cytochrome P450 2C19 [14]) of 7.77 pmol/min and a CL (Cytochrome P450 2C19 [15]) of 0.18 µL/min. The CL (Cytochrome P450 2C19 [16]) was 1.91 µL/min, the Drug metabolism (Cytochrome P450 2C19 [17]) was 2.24 pmol/min and the Drug metabolism (Cytochrome P450 2C19 [18]) was 1.58 pmol/min. It also gave a Vmax (Cytochrome P450 2C19 [19]) of 7.97 pmol/min, a CL (Cytochrome P450 2C19 [20]) of 0.79 µL/min and a Drug metabolism (Cytochrome P450 2C19 [21]) of 4.1 pmol/min. The Vmax (Cytochrome P450 2C19 [22]) was 6.93 pmol/min, the CL (Cytochrome P450 2C19 [23]) was 0.53 µL/min and the CL (Cytochrome P450 2C19 [24]) was 0.24 µL/min. For the same compound, the CL (Cytochrome P450 2C19 [25]) was 1.54 µL/min, the CL (Cytochrome P450 2C19 [26]) was 0.41 µL/min and the Vmax (Cytochrome P450 2C19 [27]) was 6.05 pmol/min. It also gave a Drug metabolism (Cytochrome P450 2C19 [28]) of 3.41 pmol/min, a Drug metabolism (Cytochrome P450 2C19 [29]) of 3.03 pmol/min and a CL (Cytochrome P450 2C19 [30]) of 0.66 µL/min. It also gave a Drug metabolism (Cytochrome P450 2C19 [31]) of 2.84 pmol/min.
